# Test results published in patent publication US12723063B2, “GIPR-agonist compounds” (Eli Lilly and Company, priority 2019, dated 2026).
# Tested on: insulin secretion
# Experiment: In vivo effect on insulin secretion (ivGTT) in male Wistar rats
# Design: species or system Wistar rat
# Description: Male Wistar rats with femoral artery and femoral vein canulas (Envigo, Indianapolis, IN) (280-320 grams) are single-housed in polycarbonate cages with filter tops. Rats maintained on a 12:12 h light-dark cycle (lights on at 6:00 A.M.) at 21° C. and receive food and deionized water ad libitum. Rats are randomized by body weight and dosed 1.5 mL/kg subcutaneously (s.c.) at doses of 0.3, 1.0, 3, 10, 30, and 100 nmol/kg 16 hours prior to glucose administration then fasted. Animals are weighed and anesthetized with sodium pentobarbital dosed intraperitoneally (i.p.) (65 mg/kg, 30 mg/mL). At time 0, a blood sample is collected into EDTA tubes after which glucose is administered intravenously (i.v.) ([…], 5 mL/kg). Blood samples are collected for glucose and insulin levels at 2, 4, 6, 10, 20 and 30 min post-intravenous administration of glucose. Plasma glucose levels are determined using a clinical chemistry analyzer. Plasma insulin is determined using an electrochemiluminescence assay (Meso Scale, Gaithersburg, MD). […] Results are presented (SEM)(N).
compound,measurement,setting,value
CC[C@H](C)[C@H](NC(=O)[C@H](CCCCN)NC(=O)[C@H](CC(=O)O)NC(=O)[C@H](CC(C)C)NC(=O)[C@](C)(CC(C)C)NC(=O)[C@@H](NC(=O)[C@H](CO)NC(=O)[C@H](Cc1ccc(O)cc1)NC(=O)[C@H](CC(=O)O)NC(=O)[C@H](CO)NC(=O)[C@@H](NC(=O)[C@H](Cc1ccccc1)NC(=O)[C@@H](NC(=O)CNC(=O)[C@H](CCC(=O)O)NC(=O)C(C)(C)NC(=O)[C@@H](N)Cc1ccc(O)cc1)[C@@H](C)O)[C@@H](C)CC)[C@@H](C)CC)C(=O)N[C@@H](Cc1c[nH]cn1)C(=O)N[C@@H](CCC(N)=O)C(=O)NC(C)(C)C(=O)N[C@@H](CC(=O)O)C(=O)N[C@@H](Cc1ccccc1)C(=O)N[C@H](C(=O)N[C@@H](CCC(=O)O)C(=O)N[C@@H](Cc1ccc(O)cc1)C(=O)N[C@@H](CCCCNC(=O)COCCOCCNC(=O)COCCOCCNC(=O)CC[C@H](NC(=O)CCCCCCCCCCCCCCCCCCC(=O)O)C(=O)O)C(=O)N[C@@H](CC(C)C)C(=O)N[C@@H](CCC(=O)O)C(=O)NCC(=O)NCC(=O)N1CCC[C@H]1C(=O)N[C@@H](CO)C(=O)N[C@@H](CO)C(=O)NCC(=O)N[C@@H](C)C(=O)N1CCC[C@H]1C(=O)N1CCC[C@H]1C(=O)N1CCC[C@H]1C(=O)N[C@@H](CO)C(N)=O)C(C)C [Example 5],insulin secretion during intravenous glucose tolerance test,0.3 nmol/kg s.c. 16 hours prior to glucose,36.2
same,insulin secretion during intravenous glucose tolerance test,1.0 nmol/kg s.c. 16 hours prior to glucose,45.3
same,insulin secretion during intravenous glucose tolerance test,3.0 nmol/kg s.c. 16 hours prior to glucose,80.6
same,insulin secretion during intravenous glucose tolerance test,10 nmol/kg s.c. 16 hours prior to glucose,122.0
same,insulin secretion during intravenous glucose tolerance test,30 nmol/kg s.c. 16 hours prior to glucose,144
same,insulin secretion during intravenous glucose tolerance test,100 nmol/kg s.c. 16 hours prior to glucose,212.7
same,Insulin secretion (ivGTT) ED50,"s.c., n = 1",18.4 (n = 1) nmol/kg
